Structures can show the parent of a compound that is named as a salt.
Experiments:
[1] = test system: pAKT(Ser473) in MDA-MB-468 cells; experiment: pAKT(Ser473) assay in MDA-MB-468 cells; format: cell-based; details: Homo sapiens, 0.5 h, compound treatment 30 minutes, MSD ELISA phospho AKT(Ser473), given as ranges, read-out: Cell Activity—pAKT IC50 in MDA-MB-468
Procedure: pAKT(Ser473) Assay in MDA-MB-468 Cells
MDA-MB-468 cells were plated in 384-well flat clear bottom tissue culture plates (Corning #3701) at a density of 5000 cells per 0.057 cm2 in 48 ul of RPMI 1640 media supplemented with 10% fetal bovine serum (FBS). Cells were seeded with a Wellmate liquid handler (Matrix). Columns 1 through 23 were plated with cells and column 24 contained media alone. Cells were incubated at 37° C. with 5% CO2 for approximately 16-20 hours. Duplicate compound plates were prepared in 384-well polypropylene V-Bottom plates (Greiner #781280).
Compound titrations were made across the columns (A1-A20). 20 ul of compound was added to the first column and diluted into a 20 point curve with dimethylsulfoxide (DMSO, Thermo #TS2064) using a 2-fold dilution factor with a liquid handling robot (Hamilton). Columns 22 through 24 contained DMSO alone. Titrations were diluted 682-fold for compound treatment with 4 ul of compound added to 105 ul of RPMI media. Two ul of the diluted compound was added to the cell plates containing 48 ul of media using a multimek robot (Beckman Coulter). Final DMSO concentrations were 0.15%. Cells were treated with compound for 30 minutes at 37° C. with 5% CO2.
Following incubation, media was aspirated from dosed cell plates using an ELx405 plate washer (Bio-Tek) and 25 ul of 4° C. Meso Scale Discovery (MSD) lysis buffer with the addition of protease and phosphatase inhibitors (supplied in MSD kit #N31CB-1) was added to each well using a multidrop combi (Thermo). Precoated 4-spot per well MSD ELISA plates coated with total and phospho AKT(Ser473) antibody and BSA (supplied in kit) were blocked for 1 hour at room temperature with 35 ul per well of 1× MSD wash buffer+3% BSA (supplied in kit).
Blocked plates were washed 4 times with 100 ul per well of 1× Tris wash buffer (supplied in MSD kit) using an Elx405 plate washer (Bio-Tek). To each well, 20 ul of cell lysate was added using a multimek robot (Beckman Coulter) and the plate incubated at 4° C. overnight (˜12-24 hours). Following incubation, the ELISA plates were washed 4 times (100 ul/well) with 1× Tris wash buffer. Twenty microliters per well of 1× detection antibody (supplied in MSD kit) was added using a multidrop combi (Thermo), followed by a 2 hour incubation at room temperature. Detection antibody was aspirated and the plates washed 4 times (100 ul/well) with 1× Tris wash buffer. Read Buffer (supplied in MSD kit) was added at 1× (35 ul/well) at room temperature using a multidrop (Thermo). Relative luminescence units (RLU) were determined using a SECTOR™ Imager 6000 with MSD Workbench Software.
Concentration Response Curves for pAKT(Ser473):
For analysis of the pAKT(Ser473) concentration response curves, the data was normalized using Phospho AKT values divided by the sum of corresponding Total AKT and Phospho AKT values. The normalized values are plotted as the percent of the DMSO-treated control values on the corresponding plate. To determine IC50 values, the data is fit to a 4 parameter nonlinear sigmoidal dose response (variable slope) using GraphPad Prism version 4 for Windows, (GraphPad Software, San Diego Calif. USA). Criteria for curve fitting and IC50 determination include that the IC50 values from duplicate runs must be within 2 to 3-fold of each other, the Y min must be less than or equal to 30% of the DMSO-treated control and the Y max must range between 80-120%. Any data point equal to or greater than 40% of the curve was not utilized.

PI3K-beta = target: T1, PI3K-beta (Homo sapiens, UniProt P42338); experiment: HTRF in vitro profiling assay for PI3K inhibition (beta isoform); format: biochemical; details: PI3K-beta enzyme pIC50 range, 200 pM enzyme, 100 uM ATP, 10 uM PIP2, 150 mM NaCl, corrected pIC50, read-out: PI3K-b Enz Activity
T1 construct: made in house
T1 sequence (P42338 whole entry, canonical isoform): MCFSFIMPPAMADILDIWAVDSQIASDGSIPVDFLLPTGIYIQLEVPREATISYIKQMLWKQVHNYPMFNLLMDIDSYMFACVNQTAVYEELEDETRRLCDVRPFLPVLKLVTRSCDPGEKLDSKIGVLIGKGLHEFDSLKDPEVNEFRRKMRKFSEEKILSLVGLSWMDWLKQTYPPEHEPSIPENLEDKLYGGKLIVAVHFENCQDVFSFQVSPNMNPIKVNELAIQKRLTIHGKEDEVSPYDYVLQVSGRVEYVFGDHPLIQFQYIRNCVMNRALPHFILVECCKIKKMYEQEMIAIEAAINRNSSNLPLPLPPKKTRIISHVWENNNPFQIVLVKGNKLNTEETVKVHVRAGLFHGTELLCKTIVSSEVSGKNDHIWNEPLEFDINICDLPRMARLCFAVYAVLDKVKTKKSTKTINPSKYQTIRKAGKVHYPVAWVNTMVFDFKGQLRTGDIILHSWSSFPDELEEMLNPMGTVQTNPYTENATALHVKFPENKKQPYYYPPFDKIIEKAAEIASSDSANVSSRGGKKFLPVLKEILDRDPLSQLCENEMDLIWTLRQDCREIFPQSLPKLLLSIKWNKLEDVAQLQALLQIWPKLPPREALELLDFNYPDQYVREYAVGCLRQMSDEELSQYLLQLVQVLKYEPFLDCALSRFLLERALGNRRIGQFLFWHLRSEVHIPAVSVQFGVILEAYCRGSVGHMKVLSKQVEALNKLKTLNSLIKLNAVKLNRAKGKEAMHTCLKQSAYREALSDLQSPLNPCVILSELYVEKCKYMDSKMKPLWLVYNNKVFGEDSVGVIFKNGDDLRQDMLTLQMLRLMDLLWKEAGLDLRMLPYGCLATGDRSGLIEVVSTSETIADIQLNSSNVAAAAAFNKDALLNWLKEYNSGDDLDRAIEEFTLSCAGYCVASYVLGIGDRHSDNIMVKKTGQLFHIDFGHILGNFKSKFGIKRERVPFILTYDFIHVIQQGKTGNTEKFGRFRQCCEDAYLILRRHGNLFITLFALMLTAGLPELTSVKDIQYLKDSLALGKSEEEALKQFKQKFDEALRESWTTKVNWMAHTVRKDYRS
T1 sequence (P27986 whole entry partner, canonical isoform): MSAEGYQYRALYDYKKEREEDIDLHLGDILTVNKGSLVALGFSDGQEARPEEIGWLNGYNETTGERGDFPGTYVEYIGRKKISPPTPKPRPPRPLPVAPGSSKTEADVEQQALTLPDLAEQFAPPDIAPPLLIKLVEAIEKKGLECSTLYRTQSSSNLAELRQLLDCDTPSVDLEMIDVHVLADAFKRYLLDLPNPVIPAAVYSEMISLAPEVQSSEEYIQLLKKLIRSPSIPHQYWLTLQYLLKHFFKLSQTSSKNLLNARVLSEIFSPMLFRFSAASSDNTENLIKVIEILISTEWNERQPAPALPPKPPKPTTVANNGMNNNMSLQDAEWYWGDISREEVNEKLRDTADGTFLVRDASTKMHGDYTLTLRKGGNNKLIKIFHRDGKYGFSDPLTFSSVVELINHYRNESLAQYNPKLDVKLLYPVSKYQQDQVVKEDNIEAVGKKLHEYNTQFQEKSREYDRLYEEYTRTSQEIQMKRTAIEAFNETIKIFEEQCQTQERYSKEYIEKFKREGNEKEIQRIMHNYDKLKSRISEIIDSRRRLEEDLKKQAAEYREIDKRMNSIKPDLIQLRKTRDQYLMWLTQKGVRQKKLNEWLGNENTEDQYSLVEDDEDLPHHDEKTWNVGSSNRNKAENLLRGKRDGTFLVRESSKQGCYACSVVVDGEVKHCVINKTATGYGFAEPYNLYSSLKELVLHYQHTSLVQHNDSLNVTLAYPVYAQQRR
Excerpt: HTRF In Vitro Profiling Assays for PI3K Inhibition
The PI3-Kinase profiling assays were developed to measure the compound-dependent inhibition of the alpha, beta, delta, and gamma isoforms of PI3K in an in vitro catalytic assay. This assay was developed and optimized from a kit produced by Upstate (Millipore catalog #33-017). Briefly, this procedure utilizes a pre-formed HTRF (Homogeneous Time-Resolved Fluorescence energy transfer) complex between four binding partners: 1) biotinylated PIP3, 2) GST tagged pleckstrin homology (PH) domain, 3) Europium labeled anti-GST monoclonal antibody, and 4) Streptavidin-Allophycocyanin (APC). The native PIP3 produced by PI 3-Kinase activity displaces biotin-PIP3 from the PH domain, resulting in the dissociation of the HTRF complex and a decrease in the fluorescence signal. The format of this assay is the same for all 4 isoforms of PI3K; the differences lie in the concentration of enzyme used to achieve the most robust signal. The alpha and delta assays are run at 400 pM enzyme; the beta assay is at 200 pM enzyme and the gamma assay is run at 1 nM enzyme. In addition, the alpha, beta and delta assays are run with 150 mM NaCl while the gamma assay is run in the absence of NaCl. The ATP concentration is 100 uM in the alpha, beta, and delta assays and 15 uM ATP in the gamma assay. All reactions are run at 10 uM PIP2
Compounds are serially diluted (3-fold in 100% DMSO) across a 384-well polypropylene mother plate from column 1 to column 12 and column 13 to column 24, to yield 11 concentrations for each test compound. Columns 6 and 18 contain only DMSO. Once titrations are made, […] is transferred to a 384-well low-volume assay plate (Greiner 784076). This assay plate contains three pharmacological controls (known PI3K inhibitors) and 3 assay controls: (1) Enzyme without inhibitor; (2) Buffer minus enzyme, and (3) Buffer minus enzyme plus native PIP3. DMSO is stamped into all wells of columns 6 and 18. PIP3 is added at 40 μM in 1× Reaction buffer (1 μL of 200 μM PIP3) to alternating rows of column 18 (wells 18 B, D, F, H, J, L, N, P). The no-enzyme control reactions are run in wells 18 A, C, E, G, I, K, M, O (0.1 μL of 100% DMSO).
The PI3-Kinase profiling assay was optimized using the HTRF kit provided by Upstate (Millipore). The assay kit contains seven reagents: 1) 4× Reaction Buffer; 2) native PIP2 (substrate); 3) Stop A (EDTA); 4) Stop B (Biotin-PIP3); 5) Detection Mix A (Streptavidin-APC); 6) Detection Mix B (Eu-labeled Anti-GST plus GST-tagged PH-domain); 7) Detection Mix C (KF). In addition, the following items were obtained or purchased: PI3Kinase (prepared by GSK BR&AD), dithiothreitol (Sigma, D-5545), Adenosine-5′-triphosphate (ATP, Teknova cat. # A0220), native PIP3 (1,2-dioctanoyl-sn-glycero-3-[phosphoinositil-3,4,5-triphosphate]tetraammonium salt (Avanti polar lipids, 850186P), DMSO (Sigma, 472301).
PI3Kinase Reaction Buffer is prepared by diluting the stock 1:4 with de-ionized water. Freshly prepared DTT is added at a final concentration of 5 mM on the day of use. Enzyme addition and compound pre-incubation are initiated by the addition of 2.5 μL of PI3K (at twice its final concentration) in 1× reaction buffer to all wells using a Multidrop Combi. Plates are incubated at room temperature for 15 minutes. Reactions are initiated by addition of 2.5 μL of 2× substrate solution (PIP2 and ATP in 1× reaction buffer) using a Multidrop Combi. Plates are incubated at room temperature for one hour. Reactions are quenched by the addition of 2.5 μL of stop solution (Stop A and Stop B pre-mixed at a ratio of 5:1, respectively) to all wells using the Multidrop Combi. […]

Row | IC50 [1] [µM] | IC50 (PI3K-beta) [µM] | Compound
1 | 1 to 5 | 0.0126 to 0.1 | Cc1nn2c(C(=O)O)cc(N3CCOCC3)nc2c1Cc1cccc2ccccc12 [Example 37, 2-methyl-5-morpholino-3-(naphthalen-1-ylmethyl)pyrazolo[1,5-a]pyrimidine-7-carboxylic acid]
2 | > 20 | 0.00126 to 0.01 | Oc1cc(C2CCOCC2)nc2c(Cc3cccc(Cl)c3Cl)c(C(F)(F)F)nn12 [Example 9, 3-(2,3-dichlorobenzyl)-5-(tetrahydro-2H-pyran-4-yl)-2-(trifluoromethyl)pyrazolo[1,5-a]pyrimidin-7-ol]
3 | < 1 | 0.00126 to 0.01 | Cc1c(Cc2c(N)nn3c(O)cc(N4CCOCC4)nc23)cccc1C(F)(F)F [Example 24, 2-amino-3-(2-methyl-3-(trifluoromethyl)benzyl)-5-morpholinopyrazolo[1,5-a]pyrimidin-7-ol]
4 | 1 to 5 | 0.000126 to 0.001 | Cc1nn2c(O)cc(N3CCOCC3)nc2c1Cc1cccc(C(F)(F)F)c1C [Example 1, 2-methyl-3-(2-methyl-3-(trifluoromethyl)benzyl)-5-morpholinopyrazolo[1,5-a]pyrimidin-7-ol]
5 | 1 to 5 | 0.000126 to 0.001 | Cc1nn2c(O)cc(N3CCOCC3)nc2c1Cc1cccc2ccccc12 [Example 22, 2-methyl-5-morpholino-3-(naphthalen-1-ylmethyl)pyrazolo[1,5-a]pyrimidin-7-ol]
6 | < 1 | 0.0126 to 0.1 | Nc1cc(N2CCOCC2)nc2c(Cc3cccc(Cl)c3Cl)cnn12 [Example 20, 3-(2,3-dichlorobenzyl)-5-morpholinopyrazolo[1,5-a]pyrimidin-7-amine]
7 | > 20 | 0.00126 to 0.01 | CCc1nn2c(O)cc(C3CCOCC3)nc2c1Cc1cccc(Cl)c1Cl [Example 15, 3-(2,3-dichlorobenzyl)-2-ethyl-5-(tetrahydro-2H-pyran-4-yl)pyrazolo[1,5-a]pyrimidin-7-ol]

The next lines start with the molecule.

Row | Compound | IC50 [1] [µM] | IC50 (PI3K-beta) [µM]
8 | Cc1nn2c(C(=O)O)cc(N3CCOCC3)nc2c1Cc1cccc(C(F)(F)F)c1C [Example 36, 2-methyl-3-(2-methyl-3-(trifluoromethyl)benzyl)-5-morpholinopyrazolo[1,5-a]pyrimidine-7-carboxylic acid] | 1 to 5 | 0.00126 to 0.01
9 | Cc1c(Cc2cnn3c(O)cc(N4CCOCC4)nc23)cccc1C(F)(F)F [Example 11, 3-(2-methyl-3-(trifluoromethyl)benzyl)-5-morpholinopyrazolo[1,5-a]pyrimidin-7-ol] | 1 to 5 | 0.00126 to 0.01
10 | Cc1nn2c(NC(N)=O)cc(N3CCOCC3)nc2c1Cc1cccc(C(F)(F)F)c1C [Example 16, 1-(2-methyl-3-(2-methyl-3-(trifluoromethyl)benzyl)-5-morpholinopyrazolo[1,5-a]pyrimidin-7-yl)urea] | > 20 | 0.0126 to 0.1
11 | Cc1nn2c(-c3nc[nH]n3)cc(N3CCOCC3)nc2c1Cc1cccc2ccccc12 [Example 40, 4-(2-methyl-3-(naphthalen-1-ylmethyl)-7-(1H-1,2,4-triazol-3-yl)pyrazolo[1,5-a]pyrimidin-5-yl)morpholine] | < 1 | 0.00126 to 0.01
12 | Nc1nn2c(O)cc(C3CCOCC3)nc2c1Cc1cccc(Cl)c1Cl [Example 26, 2-amino-3-(2,3-dichlorobenzyl)-5-(tetrahydro-2H-pyran-4-yl)pyrazolo[1,5-a]pyrimidin-7-ol hydrochloride] | 1 to 5 | 0.00126 to 0.01
13 | Cc1nn2c(-c3ncc[nH]3)cc(N3CCOCC3)nc2c1Cc1cccc2ccccc12 [Example 43, 4-(7-(1H-imidazol-2-yl)-2-methyl-3-(naphthalen-1-ylmethyl)pyrazolo[1,5-a]pyrimidin-5-yl)morpholine] | < 1 | 0.00126 to 0.01
14 | Cc1c(Cc2cnn3c(-c4cn[nH]c4)cc(N4CCOCC4)nc23)cccc1C(F)(F)F [Example 48, 4-(3-(2-methyl-3-(trifluoromethyl)benzyl)-7-(1H-pyrazol-4-yl)pyrazolo[1,5-a]pyrimidin-5-yl)morpholine] | > 20 | 0.126 to 1.26
15 | Cc1cccc(Cc2cnn3c(O)cc(-c4ccncc4)nc23)c1C [Example 14, 3-(2,3-dimethylbenzyl)-5-(pyridin-4-yl)pyrazolo[1,5-a]pyrimidin-7-ol] | 1 to 5 | 0.00126 to 0.01
16 | Cc1ccccc1Cc1c(C)nn2c(O)cc(-c3ccncc3)nc12 [Example 29, 2-methyl-3-(2-methylbenzyl)-5-(pyridin-4-yl)pyrazolo[1,5-a]pyrimidin-7-ol] | 1 to 5 | 0.00126 to 0.01

From patent US9096605B2, “Pyrazolopyrimidine derivatives as PI3 kinase inhibitors” (GlaxoSmithKline LLC, priority 2011, dated 2015)
